In US20240139139A1, “COMPOSITION FOR PREVENTING OR TREATING CEREBROVASCULAR DISEASE” (TOKYO METROPOLITAN INSTITUTE OF MEDICAL SCIENCE, priority 2021, published 2024):

Assays:
[1] = test system: cerebral infarction models of wild-type mice; assay: Cerebral infarct volume 28 days after ischemia-reperfusion in wild-type mouse model, 15-HETrE intravenous; format: in vivo; details: 600 ng intravenously 24, 48, 72 hours, p<0.05 vs vehicle, FIG. 15
Description: (§1) To identify lipids associated with pathological conditions of cerebral infarction, a comprehensive analysis was performed on lipids extracted from the cerebral tissue of a mouse model of cerebral infarction. The mouse model of cerebral infarction was prepared according to the following procedure. An embolization suture with a silicone-coated tip (Ethilon (suture gauge number 7-0), Johnson & Johnson) was inserted through the common carotid artery of 8 to 24-week-old C57BL/6N mice. Cerebral temperature was maintained at 36° C., cerebral blood flow was monitored by Doppler blood flowmeter ALF21 (ADVANCE CO., LTD.), and the embolization suture was placed at the origin of the middle cerebral artery so that the cerebral blood flow in the perfused area of the middle cerebral artery was maintained at 20 to 40% of the steady state. […]
(§2) Sections were prepared from the cerebral tissue 4 days after ischemia-reperfusion and immunohistochemistry was performed using anti-MAP2 antibody by the same procedure as in 2 above. The cerebral infarct volume was calculated based on the region that was not stained by the anti-MAP2 antibody, which is regarded as the cerebral infarct area.
(§3) Cerebral infarction models of wild-type mice were prepared (n=10) by the same procedure as in 1 above. […] The cerebral infarct volume 28 days after ischemia-reperfusion was calculated by the procedure in 6 above.

[2] = test system: cerebral infarction models of wild-type mice; assay: Long-term neurological symptoms by corner test and cylinder test, 15-HETrE intravenous; format: in vivo, mouse; details: 600 ng intravenously 24, 48, 72 hours, up to 28 days, FIG. 16, 17
Description: (§4) To identify lipids associated with pathological conditions of cerebral infarction, a comprehensive analysis was performed on lipids extracted from the cerebral tissue of a mouse model of cerebral infarction. The mouse model of cerebral infarction was prepared according to the following procedure. An embolization suture with a silicone-coated tip (Ethilon (suture gauge number 7-0), Johnson & Johnson) was inserted through the common carotid artery of 8 to 24-week-old C57BL/6N mice. Cerebral temperature was maintained at 36° C., cerebral blood flow was monitored by Doppler blood flowmeter ALF21 (ADVANCE CO., LTD.), and the embolization suture was placed at the origin of the middle cerebral artery so that the cerebral blood flow in the perfused area of the middle cerebral artery was maintained at 20 to 40% of the steady state. By removing the embolization suture after 60 minutes of ischemia, the cerebral tissue was reperfused. As a control, sham-operated mice were prepared.
as §3
In addition, long-term neurological symptoms were evaluated over time up to 28 days after ischemia-reperfusion by a corner test and a cylinder test (Nat. Med., 2017 June; 23(6):723-732). […]

[3] = test system: neurons around the infarct area; assay: RNA-seq and GO analysis of neurons around the infarct area, 15-HETrE intravenous; format: in vivo, mouse; details: wild-type mice; 600 ng intravenously 24, 48, 72 hours; day 4; RNA-seq vs vehicle; FIG. 18
Description: Cerebral infarction models of neuron-specific Padi4cKO mice and wild-type mice were prepared by the same procedure as in 1 above. At 4 days after ischemia-reperfusion, the brain was isolated after transcardial perfusion with artificial cerebrospinal fluid. The brain was sliced into 300 lam thick sections and homogenized after treated with pronase. Neurons around the infarct area were isolated using anti-Thy1.2 Antibody (BioLegend) by a cell sorter (BD FACSAria III). Single-cell RNA-seq analysis was performed using Chromium Next GEM Single Cell 3′ Kit (10× Genomics) and DNB-seq (MGI Tech), and the results of cell population clustering were visualized as a UMAP plot using Loupe Browser (10× Genomics). A gene ontology (GO) analysis was also performed for each cluster using g:profiler (https:/biit.cs.ut.ee/gprofiler/gost).
Cerebral infarction models of wild-type mice was prepared by the same procedure as in 1 above. At 24, 48, and 72 hours after ischemia-reperfusion, 15-HETrE (600 ng)/phosphate buffer was administered intravenously through the orbital venous plexus. Neurons around the infarct area were isolated from mice on day 4 after ischemia-reperfusion by the procedure in 7 above, and RNA-seq analysis was performed. The analysis results were visualized as a volcano plot using Loupe Browser, and GO analysis was performed using g:profiler. […]

[4] = test system: cerebral infarction models of wild-type mice; assay: Neurological symptoms (Bederson score) in wild-type mouse cerebral infarction model, 15-HETrE intraperitoneal; format: in vivo; details: 600 μg per mouse intraperitoneally 24 hours after ischemia-reperfusion, vs vehicle, FIG. 8
Description: as §4
(§5) Then, cerebral infarction models of PLA2g2e knockout mice (Sato H., et al., 2014, Cell Metab, 20: 119-132) and wild-type mice were prepared by the same procedure as in 1 above (n=12, respectively), and neurological symptoms after ischemia-reperfusion were assessed over time in accordance with the neurological symptoms assessment score reported by Bederson, et al. (Bederson J B, et al., 1986, Stroke, 17: 472-476). […]

[5] = test system: cerebral infarction model of PLA2g2e knockout mice; assay: Cerebral infarct volume (anti-MAP2 staining) in PLA2g2e knockout mouse cerebral infarction model, oral lipid; format: in vivo; details: 1 mg orally 24, 48 and 72 hours after ischemia-reperfusion, 4 days after ischemia-reperfusion, FIG. 10
Description: as §4, with “prepared. […]” for “prepared.”
as §2

[6] = test system: cerebral infarction model of PLA2g2e knockout mice; assay: Neurological symptoms over time in PLA2g2e knockout mouse cerebral infarction model, oral lipid; format: in vivo; details: 1 mg orally 24, 48, 72 hours, vs vehicle or stearic acid, p<0.001, FIG. 11
Description: as §1, §5
In addition, neurological symptoms after ischemia-reperfusion were evaluated over time according to the same procedure as in 2 above.

[7] = in vivo, po; cited from earlier work
[8] = test system: PADI4-positive neurons; assay: Number of PADI4-positive neurons in the peri-infarct area (immunohistochemistry); format: in vivo, mouse; details: PLA2g2e knockout mice; 1 mg orally 24, 48, 72 hours; 4 days after ischemia-reperfusion; cells per visual field; FIG. 12
Description: Then, mice were perfused and fixed transcardially using a 4% paraformaldehyde solution 7 days after ischemia-reperfusion, and the brains were isolated. From the isolated cerebral tissue, sections of 1 mm thickness were prepared, embedded in paraffin, thinly sliced to 5 μm, and immunohistochemistry was performed according to an ordinary method. Anti-MAP2 antibody (Sigma-Aldrich, Cat. #M4403) (1:1000 dilution) was used as a primary antibody, and anti-mouse IgG antibody derived from goat (Jackson Immuno Research Laboratories, Inc., Cat. #115-005-003) (1:300 dilution) was used as a secondary antibody. In the figure, the scale bar indicates 1 mm, and the round linear object is an air bubble that was mixed in during the preparation of the specimen. The ischemic necrotic region (unstained region) in the cerebral infarction model of PLA2g2e knockout mice has expanded compared to the cerebral infarction model of wild-type mice. […]
Also, sections were prepared from the cerebral tissue 4 days after ischemia-reperfusion and PADI4-positive neurons were detected by immunohistochemistry by the same procedure as in 2 above, and the number of cells per visual field (approximately 0.1 square millimeter) in the pen-infarct area was counted. […]

[9] = test system: promoter region of the mouse Padi4 gene; assay: Padi4 promoter luciferase reporter assay in Neuro2A cells; format: cell-based; details: lipids 10 μM, 24 hours, relative to untreated cells = 1, FIG. 9
Description: To identify the lipids inducing PADI4 expression, a luciferase reporter vector was prepared by incorporating the promoter region (SEQ ID NO: 5) of the mouse Padi4 gene (NCBI database accession number: NM_011061) into pGL3-Basic (Promega). The reporter vector was transfected into Neuro2A cells using PEI Max (Polysciences), and reporter cells were obtained. After reporter cells were cultured in media supplemented with lipids (10 μM final concentration) for 24 hours, the luciferase activity was measured with Luciferase Assay System (Promega). […]

For CCCCC[C@H](O)/C=C/C=C\C/C=C\CCCCCCC(=O)O [15-HETrE, 15-hydroxyeicosatrienoic acid], the cerebral infarct volume [1] was “decreased the cerebral infarct volume”, the “long-term neurological symptoms (corner test and cylinder test)” value [2] was “improved neurological symptoms up to 28 days” and the “expression of genes associated with neural tissue formation, neurite formation and synapse formation” value [3] was “highly expressed”. For the same molecule, the “neurological symptoms (Bederson neurological symptoms assessment score)” value [4] was “improved”.

In the case of CCCCC/C=C\C/C=C\C/C=C\CCCCCCC(=O)O [DGLA, dihomo-γ-linolenic acid], the cerebral infarct volume [5] is given as “decreased the cerebral infarct volume”, the “neurological symptoms after ischemia-reperfusion” value [6] is given as “improvement in neurological symptoms” and the “migration into and accumulation in cerebral tissue” value [7] is given as “migrate well into the cerebral tissue and are accumulated in the cerebral tissue even by oral intake”. For the same molecule, the “number of PADI4-positive neurons around the cerebral infarct area” value [8] was “increased” and the “Padi4 promoter inducing activity (luciferase activity)” value [9] was “induce Padi4 promoter activity”.

In the case of CCCCCCCCCCCCCCCCCC(=O)O [stearic acid, reference compound], the cerebral infarct volume [5] is reported as “did not change the cerebral infarct volume”.
